Reference: publication PMC12191924, “A new naphthalene-based fluorogenic substrate for cytochrome P450 4A11” (Biochemical Journal, 2025)
Where two headings read alike, the source gives them in different places.

Columns and labels:
[1] = biological target: T1, pooled human liver microsome (HLM) preparations (Homo sapiens, UniProt Q02928); test: Inhibition of MONACRA demethylation in pooled HLM preparations; assay type: biochemical; details: all studied HLM samples; from inhibitory analysis with epalrestat
T1 sequence (Q02928 5-519): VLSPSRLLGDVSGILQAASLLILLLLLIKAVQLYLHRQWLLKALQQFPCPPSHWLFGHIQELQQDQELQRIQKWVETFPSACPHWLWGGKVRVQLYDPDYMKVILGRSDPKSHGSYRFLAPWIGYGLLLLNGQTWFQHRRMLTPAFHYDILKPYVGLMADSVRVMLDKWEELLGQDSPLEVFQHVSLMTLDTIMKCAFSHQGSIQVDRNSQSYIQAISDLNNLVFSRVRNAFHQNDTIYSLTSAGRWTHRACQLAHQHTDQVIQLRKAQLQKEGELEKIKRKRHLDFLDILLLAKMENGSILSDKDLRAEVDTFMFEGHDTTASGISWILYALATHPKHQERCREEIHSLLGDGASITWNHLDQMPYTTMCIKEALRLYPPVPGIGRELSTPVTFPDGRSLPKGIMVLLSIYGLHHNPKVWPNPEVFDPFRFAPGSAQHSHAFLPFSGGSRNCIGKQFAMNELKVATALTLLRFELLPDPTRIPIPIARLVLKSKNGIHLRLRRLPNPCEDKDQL
Source text: To probe the role of CYP4A11 and CYP1A2 in MONACRA metabolism by HLM, we employed inhibitory analysis with the use of epalrestat as a specific inhibitor of CYP4A11 [22] and fluvoxamine as a CYP1A2 inhibitor [37]. We explored the effect of the inhibitors on the activity of recombinant CYP1A2 and CYP4A11, as well as the activity of six different preparations of HLM (preparation X347 was not available at the time of the study).
Figure 12: Effect of epalrestat (A) and fluvoxamine (B) on 3-(6-methoxynaphthalen-2-yl)acrylic acid (MONACRA) demethylation by recombinant CYP1A2 (black) and CYP4A11 (red) and three pooled human liver microsome (HLM) preparations: X263 (green), DNJ (blue), and WGP (brown). Solid lines represent the approximation of the datasets by eqn 1 (in the instances of pure inhibition) or a combination of two hyperbolic equations (in the cases of activation or combined inhibition and activation). All experiments were carried out at 150 µM MONACRA concentration. The datasets shown in the graphs represent the averages of the results of four (fluvoxamine) or two (epalrestat) individual experiments.
This study used preparations of pooled HLMs from 50, 150, or 200 donors (mixed gender). The preparations CDN, DNJ, and WGP were INVITROCYP 150-Donor Human Liver Microsomes obtained from BioIVT Corporation (Westbury, NY). Lot EGW is INVITROCYP M-Class 50-Donor HLM procured from the same company. Lots 1,910,096 and 1,210,347 were XTreme 200 Mixed Gender HLM (200 donors) purchased from XenoTech LLC (Kansas City, KS), currently a part of BioIVT. Lot 2,110,263 corresponds to mixed gender HLM from 50 donors from the same company. These lots are referred to herein as X096, X347, and X263, respectively. The supplier of the HLM preparations used in our studies, BioIVT Corporation, has declared to adhere to the regulations of the Department of Health and Human Services for the protection of human subjects (45 CFR §46.116 and §46.117) and Good Clinical Practice, (ICH E6) in obtaining the samples of human tissues used for producing the preparations of human subcellular fractions available from these companies.
Inhibition of MONACRA metabolism by epalrestat and fluvoxamine was studied using the high-throughput assay described above. The substrate concentration was kept constant at 150 µM. Each column of the well plate comprised eight wells with different concentrations of inhibitor complemented with two wells with no inhibitor added (100% activity samples) and two wells with no inhibitor and no NADPH added (‘blank’ samples). […] The fractional inhibition at each inhibitor concentration was determined from the ratio of the reaction rate in the presence of an inhibitor to the rate observed at no inhibitor added. The resulting dependence of the fractional inhibition on the inhibitor concentration was fitted to a four-parameter logistic equation (Hill equation):
(1) FI=v0−vi/v0=Amax[I]^N/IC50+[I]^N
In this equation, F I and vi are the fractional inhibition and the reaction velocity observed at inhibitor concentration [I], v0 is the reaction rate at no inhibitor added, and A max is the maximal amplitude of inhibition. IC 50 is the concentration of inhibitor at which the inhibition reaches 50% of its maximal amplitude (A max), and N is the Hill coefficient.

[2] = system: monkey liver microsomes (MLM); test: MONACRA O-demethylation by monkey liver microsomes, FA-AAA formaldehyde assay; assay type: in vitro ADME, cynomolgus monkey (Macaca fascicularis); details: sum of two Michaelis–Menten components
Source text: (§1) To probe if MONACRA can be metabolized to hydroxy-naphthyl acrylic acid (HONACRA) by liver microsomes, we utilized our high-throughput fluorimetric assay of formed formaldehyde with acetoacetanylide (FA-AAA assay, [34]). In our initial experiments, we used cynomolgus monkey (Macaca fascicularis) liver microsomes (MLM).
(§2) Figure 3: O-demethylation of 3-(6-methoxynaphthalen-2-yl)acrylic acid (MONACRA) by monkey liver microsomes (MLM). […] Panel B exemplifies the substrate saturation profile of MONACRA demethylation by MLM (0.98 mg/ml) determined by formed formaldehyde with acetoacetanylide (FA-AAA) assay with 20-min incubation at 30°C. The datasets shown in the figures represent averages of the results of two individual experiments, and the error bars indicate the standard deviations.
(§3) MONACRA demethylation was monitored by quantifying the amount of formed formaldehyde using a high-throughput fluorimetric assay based on the Hantzsch reaction with acetoacetanilide. The plates were prepared as described above. The assays were executed as described earlier, except for monitoring the formation of DPDL by the spectra of its emission with excitation at 395 nm instead of the spectra of excitation, as it was described earlier. This modification of the assay procedure was done because of an ample overlap of the spectra of excitation of MONACRA and HONACRA with that of DPDL.

[3] = as above; assay type: in vitro ADME, cynomolgus monkey (Macaca fascicularis); details: cynomolgus monkey, liver microsomes, MLM, FA assay, 20-min incubation at 30°C
Source text: as §1, §2, §3

- share of MONACRA demethylation for which CYP4A11 is responsible [1]: > 93%
- Km at 20 min ([3]; read-out: KM, first of two Michaelis–Menten components): 28.4 µM
- Km at 20 min ([3]; read-out: KM, second of two Michaelis–Menten components): 260 µM
Structure (SMILES): COc1ccc2cc(C=CC(=O)O)ccc2c1 [MONACRA, 3-(6-methoxynaphthalen-2-yl)acrylic acid]
- total Vmax [2]: 17.2 mol FA per mol of NADPH-cytochrome P450 reductase (CPR) per minute
